Data: patent US20060069132A1, “Azolecarboxamide herbicides” (priority 2004, published 2006)

Legend:
bermudagrass = assay: Test C pre-/postemergence herbicide test; assay type: in vivo, Cynodon dactylon
Method in brief: (§1)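 Preemergence: seeds planted and treated with compound in non-phytotoxic solvent with surfactant; postemergence: plants at 2 to 18 cm (1- to 4-leaf stage) sprayed likewise. Kept in greenhouse 12 to 14 days, then visually rated against controls, 0 (no effect) to 100 (complete control).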

Surinam grass = assay: Test C pre-/postemergence herbicide test; assay type: in vivo, Urochloa decumbens
Method in brief: as §1

corn = assay: Test C pre-/postemergence herbicide test; assay type: in vivo, Zea mays
Method in brief: as §1

goosegrass = assay: Test C pre-/postemergence herbicide test; assay type: in vivo, Eleusine indica
Method in brief: as §1

johnsongrass = assay: Test C pre-/postemergence herbicide test; assay type: in vivo, Sorghum halepense
Method in brief: as §1

morningglory = assay: Test C pre-/postemergence herbicide test; assay type: in vivo, Ipomoea coccinea; set-up: key to Plant response rating, Morningglory: 0 = no effect, 100 = complete control
Method in brief: as §1

common ragweed = assay: Test C pre-/postemergence herbicide test; assay type: in vivo, Ambrosia elatior; set-up: key to Plant response rating, Ragweed: 0 = no effect, 100 = complete control
Method in brief: as §1

velvetleaf = assay: Test C pre-/postemergence herbicide test; assay type: in vivo, Abutilon theophrasti
Method in brief: as §1

ducksalad = assay: Test C flooded paddy test; assay type: in vivo, Heteranthera limosa; conditions: for Plant response rating, Ducksalad: 500 g ai/ha, visual rating after 12 to 14 days
barnyardgrass = assay: Test C flooded paddy test; assay type: in vivo, Echinochloa crus-galli; conditions: for Plant response rating, Barnyardgrass: 500 g ai/ha, visual rating after 12 to 14 days
Method in brief: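 Postemergence sprays applied to plants 2 to 18 cm tall (1- to 4-leaf stage); paddy species grown to 2-leaf stage under flooding. After 12 to 14 days in greenhouse, visual rating versus untreated controls on 0–100 scale (0 no effect, 100 complete control).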

[1] = 250 g ai/ha, scale 0-100, preemergence
[2] = 500 g ai/ha, scale 0 to 100 (0 no effect, 100 complete control), visual, 12 to 14 days, preemergence
[3] = 62 g ai/ha, preemergence, scale 0 to 100
[4] = 125 g ai/ha, scale 0 to 100 (0 no effect, 100 complete control)
[5] = 250 g ai/ha, scale of 0 to 100, 0 is no effect, 100 is complete control
[6] = scale 0 to 100 (0 no effect, 100 complete control)
[7] = 62 g ai/ha, scale 0 to 100 (0 no effect, 100 complete control)
[8] = postemergence, 125 g ai/ha, scale 0 to 100
[9] = postemergence, 62 g ai/ha, scale 0 to 100
[10] = Postemergence, 250 g ai/ha, scale 0 to 100, 0 no effect, 100 complete control
[11] = 125 g ai/ha, scale of 0 to 100, 0 is no effect, 100 is complete control

## CCC1=NN(C(C)(C)C)CC1C(=O)Nc1cc(C(=O)N(C)CC)ccc1F (racemic) [Compound 342]
bermudagrass; 62 g ai/ha, preemergence, scale 0 to 100, 0 no effect, 100 complete control
  Plant response rating, Bermudagrass: 45
bermudagrass; 125 g ai/ha, preemergence
  Plant response rating (0 = no effect, 100 = complete control), Bermudagrass: 60
bermudagrass; [1]
  Plant response rating, Bermudagrass: 90
bermudagrass; [2]
  Plant response rating, Bermudagrass: 90
Surinam grass; [3]
  Plant response rating, Surinam Grass: 40
Surinam grass; 125 g ai/ha, preemergence
  Plant response rating (0 = no effect, 100 = complete control), Surinam Grass: 90
Surinam grass; [1]
  Plant response rating, Surinam Grass: 100
Surinam grass; [2]
  Plant response rating, Surinam Grass: 100
corn; [3]
  Plant response rating, Corn: 10
corn; 125 g ai/ha, preemergence
  Plant response rating (0 = no effect, 100 = complete control), Corn: 50
corn; [1]
  Plant response rating, Corn: 70
corn; [2]
  Plant response rating, Corn: 90
goosegrass; [3]
  Plant response rating, Goosegrass: 60
goosegrass; 125 g ai/ha, preemergence
  Plant response rating (0 = no effect, 100 = complete control), Goosegrass: 65
goosegrass; [1]
  Plant response rating, Goosegrass: 65
goosegrass; [2]
  Plant response rating, Goosegrass: 90
johnsongrass; [3]
  Plant response rating, Johnsongrass: 55
johnsongrass; 125 g ai/ha, preemergence
  Plant response rating (0 = no effect, 100 = complete control), Johnsongrass: 100
johnsongrass; [1]
  Plant response rating, Johnsongrass: 100
johnsongrass; [2]
  Plant response rating, Johnsongrass: 100
morningglory; [3]
  Plant response rating, Morningglory: 0
morningglory; 125 g ai/ha, preemergence
  Plant response rating (0 = no effect, 100 = complete control), Morningglory: 5
morningglory; [1]
  Plant response rating, Morningglory: 70
morningglory; [2]
  Plant response rating, Morningglory: 100
Common ragweed; [3]
  Plant response rating, Ragweed: 55
Common ragweed; 125 g ai/ha, preemergence
  Plant response rating (0 = no effect, 100 = complete control), Ragweed: 95
Common ragweed; [1]
  Plant response rating, Ragweed: 100
Common ragweed; [2]
  Plant response rating, Ragweed: 100
velvetleaf; [3]
  Plant response rating, Velvetleaf: 50
velvetleaf; 125 g ai/ha, preemergence
  Plant response rating (0 = no effect, 100 = complete control), Velvetleaf: 60
velvetleaf; [1]
  Plant response rating, Velvetleaf: 100
velvetleaf; [2]
  Plant response rating, Velvetleaf: 100
ducksalad; 62 g ai/ha, scale 0 to 100
  Ducksalad plant response rating: 50
ducksalad; [4]
  Ducksalad plant response rating: 50
ducksalad; [5]
  Ducksalad plant response rating: 80
ducksalad; [6]
  Plant response rating, Ducksalad: 80
barnyardgrass; [7]
  Barnyardgrass plant response rating: 20
barnyardgrass; [4]
  Barnyardgrass plant response rating: 20
barnyardgrass; [5]
  Barnyardgrass plant response rating: 50
barnyardgrass; [6]
  Plant response rating, Barnyardgrass: 60

## CCn1nc(C(C)(C)C)cc1C(=O)Nc1cccc(C(=O)OC)c1 [Compound 81]
bermudagrass; Postemergence, 250 g ai/ha, scale 0 to 100
  Bermudagrass plant response rating: 20
bermudagrass; [8]
  Plant response rating, Bermudagrass: 0
bermudagrass; postemergence, 31 g ai/ha, scale 0 to 100
  Plant response rating, Bermudagrass: 0
bermudagrass; [9]
  Plant response rating, Bermudagrass: 0
Surinam grass; [10]
  Plant response rating, Surinam Grass: 80
Surinam grass; [8]
  Plant response rating, Surinam Grass: 50
Surinam grass; [9]
  Plant response rating, Surinam Grass: 50
corn; [10]
  Plant response rating, Corn: 40
corn; [8]
  Plant response rating, Corn: 40
corn; [9]
  Plant response rating, Corn: 40
goosegrass; [10]
  Plant response rating, Goosegrass: 10
goosegrass; [8]
  Plant response rating, Goosegrass: 5
goosegrass; [9]
  Plant response rating, Goosegrass: 0
johnsongrass; [10]
  Plant response rating, Johnsongrass: 5
johnsongrass; [8]
  Plant response rating, Johnsongrass: 0
johnsongrass; [9]
  Plant response rating, Johnsongrass: 0
morningglory; [10]
  Plant response rating, Morningglory: 10
morningglory; [8]
  Plant response rating, Morningglory: 10
morningglory; [9]
  Plant response rating, Morningglory: 10
Common ragweed; [10]
  Plant response rating, Ragweed: 60
Common ragweed; [8]
  Plant response rating, Ragweed: 60
Common ragweed; [9]
  Plant response rating, Ragweed: 40
velvetleaf; [10]
  Plant response rating, Velvetleaf: 60
velvetleaf; [8]
  Plant response rating, Velvetleaf: 55
velvetleaf; [9]
  Plant response rating, Velvetleaf: 55
ducksalad; [7]
  Ducksalad plant response rating: 0
ducksalad; [11]
  Ducksalad plant response rating: 0
ducksalad; [5]
  Ducksalad plant response rating: 20
ducksalad; [6]
  Plant response rating, Ducksalad: 20
barnyardgrass; [7]
  Barnyardgrass plant response rating: 0
barnyardgrass; [11]
  Barnyardgrass plant response rating: 0
barnyardgrass; [5]
  Barnyardgrass plant response rating: 0
barnyardgrass; [6]
  Plant response rating, Barnyardgrass: 30
